Results from ChEMBL document CHEMBL5505982, “Design, synthesis, biological evaluation and in silico studies of novel quinoline derivatives as potential radioprotective molecules targeting the TLR2 and p53 pathways” (Eur J Med Chem, 2024).
Activity calls are given as the source filed them. The rule behind the calls is not given here.

Experiments:
Toll-like receptor 2 [1] = target: T1, Toll-like receptor 2 (Homo sapiens, UniProt O60603); assay: Binding affinity to TLR2 (unknown origin) by SPR analysis; settings: filed as agonist, dose 3-100 µM
AHH-1 [2] = assay: Induction of apoptosis in human AHH-1 cells assessed as early apoptotic cells preincubated with compound for 24 hrs followed by irradiation with 6 Gy and measured after 24 hrs of radiation by Annexin V-FITC/PI staining based flow cytometry analysis (reference value: 14.1%); type: functional; settings: time 48 hrs
Mus musculus [3] = assay: Radioprotective activity in irradiated C57BL/6J mouse model assessed as increase in platelets count at 300 mg/kg, ip preincubated with compound for 15 to 1440 mins followed by irradiation with 6.5 Gy and measured after 14 days of radiation relative to Ex-rad/control; type: functional, organism-based; settings: time 15-21600 min
AHH-1 [4] = assay: Radioprotective activity against human AHH-1 cells assessed as decrease in Bax expression pretreated with compound for 24 hrs in presence of ionizing irradiation by Western blotting analysis; type: functional, cell-based
AHH-1 [5] = assay: Induction of apoptosis in human AHH-1 cells assessed as early apoptotic cells preincubated with compound for 24 hrs followed by irradiation with 4 Gy and measured after 24 hrs of radiation by Annexin V-FITC/PI staining based flow cytometry analysis (reference value: 14.3%); type: functional; settings: time 48 hrs
AHH-1 [6] = assay: Induction of apoptosis in human AHH-1 cells assessed as viable cells preincubated with compound for 24 hrs followed by irradiation with 6 Gy and measured after 24 hrs of radiation by Annexin V-FITC/PI staining based flow cytometry analysis (reference value: 52.3%); type: functional; settings: time 48 hrs
AHH-1 [7] = assay: Induction of apoptosis in human AHH-1 cells assessed as late apoptotic cells preincubated with compound for 24 hrs followed by irradiation with 6 Gy and measured after 24 hrs of radiation by Annexin V-FITC/PI staining based flow cytometry analysis (reference value: 29.8%); type: functional; settings: time 48 hrs
AHH-1 [8] = assay: Anti-iradiation activity against human AHH-1 cells assessed as cell viability at 10 micromol preincubated with compound for 24 hrs followed by irradiation with 8 Gy and measured after 24 hrs by CCK-8 assay; type: functional; settings: dose 10 µmol; time 48 hrs
Mus musculus [9] = assay: Radioprotective activity in irradiated C57BL/6J mouse model assessed as increase in HGB count at 300 mg/kg, ip preincubated with compound for 15 to 1440 mins followed by irradiation with 6.5 Gy and measured after 1 to 10 days of radiation; type: functional, organism-based
Mus musculus [10] = assay: Radioprotective activity in irradiated C57BL/6J mouse model assessed as increase in RBC count at 300 mg/kg, ip preincubated with compound for 15 to 1440 mins followed by irradiation with 6.5 Gy and measured after 13 days of radiation; type: functional, organism-based; settings: Erythrocyte, time 15-20160 min
AHH-1 [11] = assay: Cytotoxicity against human AHH-1 cells assessed as inhibition of cell growth incubated for 24 hrs by CCK-8 assay; type: functional, cell-based; settings: AHH-1, 24 h
Toll-like receptor 2 [12] = target: T1, Toll-like receptor 2; assay: Agonist activity at TLR2 in human HUVEC cells assessed as increase in MyD88 level pretreated with compound for 24 hrs in presence of ionizing irradiation by Western blotting analysis; type: cell-based; settings: filed as agonist
Mus musculus [13] = assay: Radioprotective activity in C57BL/6J mouse assessed as survival rate at 30 mg/kg, ip preincubated with compound for 15 to 1440 mins followed by irradiation and measured at day 30; type: functional; settings: light or radiation study, time 15-44640 min

T1 sequence (O60603 whole entry): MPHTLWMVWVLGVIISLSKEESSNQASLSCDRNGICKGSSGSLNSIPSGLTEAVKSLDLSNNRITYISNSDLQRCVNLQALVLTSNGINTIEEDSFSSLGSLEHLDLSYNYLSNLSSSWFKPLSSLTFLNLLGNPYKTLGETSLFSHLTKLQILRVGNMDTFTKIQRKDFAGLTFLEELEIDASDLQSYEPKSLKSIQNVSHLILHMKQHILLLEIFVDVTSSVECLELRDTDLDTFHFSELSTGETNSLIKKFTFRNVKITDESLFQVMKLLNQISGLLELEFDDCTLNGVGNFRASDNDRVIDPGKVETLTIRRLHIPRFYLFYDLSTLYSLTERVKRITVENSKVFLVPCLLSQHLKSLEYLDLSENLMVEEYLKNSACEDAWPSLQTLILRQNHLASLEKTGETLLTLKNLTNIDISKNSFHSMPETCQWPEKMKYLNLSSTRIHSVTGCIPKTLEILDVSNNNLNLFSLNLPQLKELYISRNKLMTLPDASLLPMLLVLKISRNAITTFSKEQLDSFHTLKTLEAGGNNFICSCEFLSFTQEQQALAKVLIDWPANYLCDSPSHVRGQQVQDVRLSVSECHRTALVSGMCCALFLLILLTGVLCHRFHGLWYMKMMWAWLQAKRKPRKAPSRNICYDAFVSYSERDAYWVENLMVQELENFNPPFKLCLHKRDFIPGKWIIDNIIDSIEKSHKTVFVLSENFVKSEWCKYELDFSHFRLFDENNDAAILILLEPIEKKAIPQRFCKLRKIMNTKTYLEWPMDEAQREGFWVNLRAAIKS

With `[O-][S+](Cc1ccc(F)cc1)c1ccc2cc(Br)ccc2n1` (stereo not drawn) the Activity (Toll-like receptor 2 [1]) was “Dose-Dependent Effect”, the Activity (AHH-1 [2]) was 13.7% and the Activity (Mus musculus [3]) was “Active”. The Activity (AHH-1 [4]) was “Active”, the Activity (AHH-1 [5]) was 14% and the Activity (AHH-1 [6]) was 67.6%. For the same compound, the Activity (AHH-1 [7]) was 16.2%, the Activity (AHH-1 [8]) was 55.86% and the Activity (Mus musculus [9]) was “inactive”. For the same compound, the Activity (Mus musculus [10]) was “Active”, the IC50 (AHH-1 [11]) was 154 µM and the Activity (Toll-like receptor 2 [12]) was “Active”. The survival at 30 mg/kg (Mus musculus [13]) was 80%.
